Results taken from ChEMBL document CHEMBL1125447, “Phenylmorphans and analogues: opioid receptor subtype selectivity and effect of conformation on activity” (J Med Chem, 1992).

Legend:
[1] = target: Kappa-type opioid receptor (Cavia porcellus, UniProt P41144); assay: Binding affinity towards opioid receptor kappa 1
[2] = target: T1, Mu-type opioid receptor (Bos taurus, UniProt P79350); assay: Binding affinity towards opioid receptor mu 2
[3] = target: T1, Mu-type opioid receptor; assay: Binding affinity towards opioid receptor mu 1
[4] = system: Mus musculus; assay: Antinociceptive activity displayed after pretreatment with selective opioid antagonist beta-FNA([…], sc); assay type: functional

Kappa-type opioid receptor, sequence (P41144 whole entry): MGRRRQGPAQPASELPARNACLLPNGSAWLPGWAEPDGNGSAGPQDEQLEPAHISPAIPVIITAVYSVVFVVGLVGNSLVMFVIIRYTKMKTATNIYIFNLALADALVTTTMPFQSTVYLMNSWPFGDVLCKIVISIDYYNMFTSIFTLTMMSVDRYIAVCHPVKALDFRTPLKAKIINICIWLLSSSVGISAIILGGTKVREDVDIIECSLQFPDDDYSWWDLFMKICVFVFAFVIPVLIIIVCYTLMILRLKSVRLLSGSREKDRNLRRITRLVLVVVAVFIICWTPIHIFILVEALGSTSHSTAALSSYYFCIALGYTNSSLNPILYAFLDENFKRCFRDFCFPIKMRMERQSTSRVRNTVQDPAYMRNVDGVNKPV
T1 sequence (P79350 whole entry): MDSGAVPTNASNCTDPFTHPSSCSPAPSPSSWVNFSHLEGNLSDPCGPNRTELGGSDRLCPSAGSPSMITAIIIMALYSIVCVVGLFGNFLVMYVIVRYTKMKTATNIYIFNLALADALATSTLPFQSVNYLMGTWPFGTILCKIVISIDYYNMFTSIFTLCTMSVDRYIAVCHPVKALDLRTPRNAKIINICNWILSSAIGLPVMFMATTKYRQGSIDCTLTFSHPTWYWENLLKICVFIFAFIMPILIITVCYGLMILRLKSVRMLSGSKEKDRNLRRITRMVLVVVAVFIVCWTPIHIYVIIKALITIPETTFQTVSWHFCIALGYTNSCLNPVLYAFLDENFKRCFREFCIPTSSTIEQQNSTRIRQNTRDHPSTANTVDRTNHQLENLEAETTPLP

Row | SMILES | Ki [1] [µM] | Ki [2] [µM] | Ki [3] [µM] | Animals [4] [%]
1 | CN1CCC2(c3cccc(O)c3)CCCC1C2 (single isomer, unassigned; (+)) | 0.098 | 0.019 | 0.0034 | 0
2 | CN1CCC2(c3cccc(O)c3)CCCC1C2 (single isomer, unassigned; (-)) | 0.2 | 0.063 | 0.013 | 
3 | C[C@@H]1C2CCCC1(c1cccc(O)c1)CCN2C (single isomer, unassigned; (-)) | 0.049 | 0.05 | 0.018 | 
4 | C[C@@H]1C2CCCC1(c1cccc(O)c1)CCN2C (mixture of isomers) | 0.07 | 0.19 | 0.046 | 
5 | CC1(C)SSC(C)(C)[C@@H](NC(=O)[C@@H](N)Cc2ccc(O)cc2)C(=O)NCC(=O)N[C@@H](Cc2ccccc2)C(=O)N[C@H]1C(=O)O |  | 0.46 | 0.082 | 
6 | CN1CCC2(c3cccc(O)c3)CCCC1[C@@H]2O (mixture of isomers) | > 0.5 | > 0.275 | 0.075 | 
7 | CN1CCC2(c3cccc(O)c3)CCCC1[C@H]2O (mixture of isomers) | 0.11 | 0.028 | 0.0088 | 
8 | C[C@@H]1C2CCCC1(c1cccc(O)c1)CCN2C (single isomer, unassigned; (+)) | 0.089 | > 0.6 | 0.14 | 
